According to patent US8541426B2, “Pharmaceutical compositions and methods of treating dry eye disorders” (Pfizer Inc., priority 2007, dated 2013):

Assays:
[1] = test system: MRL/Ipr (Dry Eye) Mice
Procedure: To study the level of tear production over time, 10 MRL/Ipr mice and 5 of the age-matched C57 Black/6 control mice at 8 weeks of age were purchased from Jackson Laboratory (Bar Harbor, Me., USA). The mouse strain MRL/Ipr has a mutation which predisposes it to dry eye similar to Sjogren's Syndrome.
Tear production was measured with cotton thread (Quick Zone®) held with forceps and applied to the ocular surface at the lateral canthus for 15 to 30 seconds. Wetting of the thread was measured in millimeters.
C57 mice also received vehicle. Tear volume was measured on days 2, 3, and 6.
Tear measurement was done using phenol red impregnated thread (Quick Zone®) and baseline measurement was performed before each drug application. Drugs or vehicles were applied at 2 μl, two times a day.
Vehicle-treated normal C57black/6 and MRL/Ipr dry eye mice were used as normal control and dry eye control, respectively.
Control animals included normal C57Black/6 mice, and MRL/Ipr mice, treated with PBS vehicle and MRL/Ipr mice treated with Refresh Endura® (vehicle for Restasis) (5-10 mice/group).
As with Example 4 above, vehicle-treated normal C57black/6 and MRL/Ipr dry eye mice (5-10 mice/group) were used as normal control and dry eye control, respectively. […] Treatment for Formulation 1 was carried for two weeks, at 2 μl, twice a day.

[2] = test system: dry-induced C57 mice; experiment: Induced dry eye mouse model (scopolamine and fans), tear production; type: in vivo; details: for tear production versus normal tear production values: after 4 days of treatment, induced dry eye mice
Procedure: An injection was prepared comprising 2.5 mg/ml scopolamine (sigma) in injectable saline (1-1.5 ml per animal). In normal C57 mice (200-250) ul of scopolamine was injected four times every 2.5 hrs in alternating hind quarters. The mice were placed in special cages (with holes in front and back) and placed in a hood. Fans were placed in front of each cage, and turned on for 16 hours over night for five days.
Measurements were taken daily.
As with Examples 4 and 5 above, animals were treated with drug or vehicle at 1 μl, once a day for 2 weeks.

[3] = CP-690550 0.01% vs Restasis (cyclosporine 0.05%), twice a day for 30 days, MRL/Ipr mice (FIG. 3)

C[C@@H]1CCN(C(=O)CC#N)C[C@@H]1N(C)c1ncnc2[nH]ccc12 [CP0690550, 3-{(3R,4R)-4-Methyl-3-[methyl-(7H-pyrrolo[2,3-d]pyrimidin-4-yl)-amino]-piperidin-1-yl}-3-oxo-propionitrile]
tear production comparable to normal: within x% of tear production by C57 normal mice ([1]; 0.01% (w/w) in Formulation 1 vehicle, twice a day, within 8 days, MRL/Ipr mice (FIG. 4)): 5 to 10%
increase of tear production volume ([1]; 0.1% (w/w) twice a day, topical, MRL/Ipr mice, within the first 2 days of application (FIG. 2)): significantly increase
response rate as compared to Restasis [1, 3]: much faster response rate
volume of tear production over Restasis [1, 3]: significant improvement
improvement in tear production ([1]; all comparisons (Formulations 1, 3 and 4 vehicle, FIGS. 4-6), 2 days after treatment, MRL/Ipr mice): significant improvement
tear production volume comparable to normal: within x% of tear production by normal C57 mice ([1]; ultimately reached, MRL/Ipr mice, FIGS. 3 and 4): 5 to 10%
tear production versus normal tear production values ([2]; 0.003% in Formulation 5, once a day): approximated normal tear production values
tear production versus normal tear production values ([2]; 0.01% (w/w) in Formulation 3, once a day): approximated normal tear production values
increase in tear production ([2]; Formulations 3 and 5, 1 μl once a day, at 2 days of treatment, induced dry eye mice (FIGS. 7 and 8)): significant increase
